We go through twelve compounds from patent US6420428B1, “Treatment and prevention of hepatic disorders” (The Regents of the University of California, priority 1996, dated 2002).

One data set concerns cultured stellate cells. The following applies: cited from earlier work.
In data set [1] the test system is hepatic stellate cells. Kind of data set: Proliferation of cultured hepatic stellate cells (nuclear expression of PCNA, S-phase). It is filed as cell-based, Sprague-Dawley rats. The following applies: for effect on stellate cell cycle activation (PCNA) induced by collagen type I matrix or TGFα: 50 μM.
Description: Stellate cells were prepared from male Sprague-Dawley (400-500 grams) rats (Charles River Breeding Labs) by in situ perfusion of the liver and single-step density Nycodenz® gradient (Accurate Chemical & Scientific Corp.). […] The cells were mixed with 9.5 mL Hank's buffer containing 3 g/L BSA and 8 mL of 28.7% (w/v) Nycodenz® in sodium-free Hank's buffer. The gradient was generated by placing 6 mL of the Hank's/BSA solution on top of the liver cell mixture in a 50 mL centrifugation tube. After centrifugation (1000 g, 4° C., 20 min) the cells were aspirated from above the interface and washed twice in serum-free DME regular glucose medium.
Thereafter, the cells were cultured under an atmosphere of 5% CO2, 95% air in tissue culture dishes using DME medium containing penicillin G 100 units/mL, streptomycin sulfate 100 μg/mL and 10% fetal calf serum. For TGFα-induced stellate cell activation, cells were cultured on plastic in serum-free defined media (Fibroblast basal medium with Insulin, Clonetics). Fibroblast basal medium is similar to F12 medium, but contains folinic acid, Hepes buffer with NaOH, MgSO4, and adenine instead of folic acid, NaHCO3, MgCl2 and hypoxanthine. Cells were plated on 60-mm dishes coated with collagen type 1, EHS matrix (Matrigel; Collaborative Bio-medical Products) or plastic (according to the experimental design), for the initial seeding of fat-storing cells at a density of 2-3×10^6. […]
The number of PCNA (+), c-myb(+), or NFkB(+), α-SMA(+) cells was expressed as a percentage of total cells. At least 1,000 cells were analyzed for each experimental point, and a minimum of two observers analyzed each immunohistochemical experiment independently. […]
The role of lipid peroxidation on stellate cell activation was examined. Stellate cell activation was induced in quiescent cells growing on a EHS matrix; inhibition of this phenotype was evaluated with cells activated by collagen type I matrix. […] Stellate cell activation was assessed by the expression of α-SMA (as described in Example 1) and S-phase by the presence of PCNA.
Data set [2] in a line: Plasma d-α-tocopherol by high pressure chromatography in patients. The following applies: 1,200 IU/day orally for 8 weeks; before treatment 9.6±4.3; P<0.003. It counts as in vivo, human. An excerpt:
(§1) Patients with chronic active hepatitis C and severe necro-inflammatory changes without cirrhosis (as established by liver biopsy) were studied at the University of California San Diego Liver Clinic. Six patients (2 women and 4 men; 47±8 years) who had not responded to interferon α-2b therapy (i.e., who were refractory) and with no other co-morbid illnesses received 1,200 IU/day of d-α-tocopherol orally for 8 weeks. On completion of the study, all patients underwent a liver biopsy; liver sections from patients with chronic hepatitis C and from individuals without liver disease were provided by Dr. C. Behling at UCSD.
(§2) Liver tissue obtained from biopsies was studied, as described below, by immunohistochemistry and in situ hybridization with specific riboprobes. Carbonyl modifications were assayed in plasma proteins, as an index of oxidative stress. [Palinski et al., Arteriosclerosis 10:325-35 (1990)]. Serum alanine aminotransferase (ALT) was determined with a (Hitachi) analyzer, plasma d-α-tocopherol by high pressure chromatography, and HCV RNA by quantitative PCR. [See U.S. Pat. Nos. 4,683,202 and 4,683,195, hereby incorporated by reference].

Data set [3] relates to hepatic stellate cells. Description: Activation of cultured hepatic stellate cells (α-SMA immunohistochemistry). It is filed as cell-based, Sprague-Dawley rats. The following applies: for effect on stellate cell activation / increased α-SMA expression induced by collagen type I matrix: cultured on collagen type I matrix. On the procedure:
Stellate cells were prepared from male Sprague-Dawley (400-500 grams) rats (Charles River Breeding Labs) by in situ perfusion of the liver and single-step density Nycodenz® gradient (Accurate Chemical & Scientific Corp.). [See Bedossa et al., Hepatology 19(5):1262-71 (1994); Brenner et al., Mol. Biol. Med. 7:105-15 (1990)]. The cells were mixed with 9.5 mL Hank's buffer containing 3 g/L BSA and 8 mL of 28.7% (w/v) Nycodenz® in sodium-free Hank's buffer. The gradient was generated by placing 6 mL of the Hank's/BSA solution on top of the liver cell mixture in a 50 mL centrifugation tube. […] For TGFα-induced stellate cell activation, cells were cultured on plastic in serum-free defined media (Fibroblast basal medium with Insulin, Clonetics). Fibroblast basal medium is similar to F12 medium, but contains folinic acid, Hepes buffer with NaOH, MgSO4, and adenine instead of folic acid, NaHCO3, MgCl2 and hypoxanthine. Cells were plated on 60-mm dishes coated with collagen type 1, EHS matrix (Matrigel; Collaborative Bio-medical Products) or plastic (according to the experimental design), for the initial seeding of fat-storing cells at a density of 2-3×10^6. Matrigel's major components are […], collagen IV, proteoglycans, entactin and nidogen; it also contains:TGFβ, fibroblast growth factor, and tissue plasminogen activator. […] Medium was changed every 24 h for all conditions. The sequences of c-myb oligonucleotide phosphorothioate were: sense ([NT] ID NO:3) and antisense ([NT] ID NO:4). Stellate cells were identified by their typical autofluorescence at 328 nm excitation wavelength, staining of lipid droplets by oil red, and immunohistochemistry with a monoclonal antibody against desmin. [Bedossa et al., Hepatology 19(5):1262-71 (1994)]. Cells, fixed with acetone:methanol (50:50) at -20° C. for 20 min., and liver tissue were immunostained as described, e.g., by Buck et al., EMBO J. 13:851-60 (1994). Antibodies directed against c-myb, NFkB65, α-SMA, or PCNA were obtained from Sigma, 5 Prime 3 Prime, and Oncogene Sciences. Fluorescent labels were visualized using a dual channel Zeiss microscope and a computer imaging system (Image 1 software). A phase-contrast microscope was utilized to visualize antigens with alkaline phosphatase secondary antibodies (Vector Laboratories). Cytochromes utilized were alkaline phosphatase with fast green as counterstain, and FITC with Evans blue as counterstain (Sigma). The number of PCNA (+), c-myb(+), or NFkB(+), α-SMA(+) cells was expressed as a percentage of total cells. At least 1,000 cells were analyzed for each experimental point, and a minimum of two observers analyzed each immunohistochemical experiment independently. Negative control samples were processed in parallel under the same conditions, but with omission of the first antibody. The role of lipid peroxidation on stellate cell activation was examined. Stellate cell activation was induced in quiescent cells growing on a EHS matrix; inhibition of this phenotype was evaluated with cells activated by collagen type I matrix. [See Davis et al., J. Biol. Chem. 262:10280-86 (1987)]. When stellate cell activation was induced by TGFα as described, e.g., by Pinzani et al., J. Clin. […] Stellate cell activation was assessed by the expression of α-SMA (as described in Example 1) and S-phase by the presence of PCNA. [Bravo et al., Nature (Lond.) 326:515-17 (1987)]. […] SEM<30% of the mean for all conditions).

The next data set deals with collagen expression. To be noted: injected into mice; cited from earlier work.
The subject of data set [4] is fibrogenesis cascade in the liver of patients with chronic hepatitis C. Description: Liver biopsy immunohistochemistry and in situ hybridization in patients with chronic hepatitis C. It is filed as in vivo, human. The following applies: 8 weeks.
Description: Antisera to MDA-lysine adducts were prepared by a variation of the technique described by Houglum et al., J Clin Invest 86:1991-98 (1990). Briefly, rabbit LDS was purified and modified with MDA, and the modified autologous LDL was used to immunize rabbits.
Sections from paraffin-embedded blocks were deparaffinized, passed through graded series of alcohol, rehydrated in PBS, and stained with hematoxylin and eosin. Immunohistochemistry was performed using the avidin-biotin complex-alkaline phosphatase, peroxidase systems (Vector Laboratories, ABC-peroxidase system) or fluorescein. Sections were immunostained with antibodies specific for MDA-protein adducts, α-smooth muscle actin (Sigma), or c-myb.
The antisera was used with fluorochrome-conjugated secondary antibodies. Fluorescent labels were visualized using a dual filter Zeiss microscope, while a phase-contrast microscope was used to visualize antigens with hematoxilin/eosin or alkaline phosphatase secondary antibodies.
Hybridization, RNase digestion of mismatched sequences, and immunological detection of the digoxigenin-labeled RNA probes were performed as described by Houglum et al., Am. […] Briefly, single stranded RNA probes in both sense and antisense orientations were transcribed in vitro from the plasmid pHuCol, which contains a 300 base pair cDNA fragment of the human collagen α1(I) gene, and labeled with digoxigenin-11-UTP. […] For the labelling procedure, 2 μg of linearized plasmid were transcribed in a 30 μL reaction volume containing 40 mM tris(hydroxymethyl)aminomethane (Tris).HCl, pH 7.9; 6 mM MgCl2; 2 mM apermidine.HCl; 10 mM dithiothreitol, 10 mM ATP, CTP, and GTP; 6.5 mM UTP; and 3.5 mM digoxigenin-11-UTP with 309 units of T3 or T7 DNA polymerase. The specificity of the probe was assessed by in situ hybridization of human skin. All sections were processed using same batches of probe and reagents and using sense and antisense in parallel.
Data set [5] is described as follows: Carbonyl modifications of plasma proteins (index of oxidative stress) in patients. It is filed as in vivo, human. The following applies: 1,200 IU/day, 8 weeks; before treatment 2.7±0.4; P<0.001.
Excerpt: as §1, §2

The next data set has as its system HCV. Description: HCV RNA by quantitative PCR in patients. The following applies: 1,200 IU/day, 8 weeks. It counts as in vivo, human.
Excerpt: as §1, §2

The conditions of data set [6]: nutritional- or CCl4-induced injury; cited from earlier work.
Another data set relates to phospholipase A2. To be noted: cited from earlier work.
Data set [7] deals with human polymorphonuclear leukocytes. The following applies: stimulated with calcium ionophore A23187; cited from earlier work.
The subject of data set [8] is fatty acid cyclooxygenase. The following applies: cited from earlier work.
In data set [9] the target is T1, 5-lipoxygenase (Homo sapiens, UniProt P09917).
T1 sequence (P09917 1-674): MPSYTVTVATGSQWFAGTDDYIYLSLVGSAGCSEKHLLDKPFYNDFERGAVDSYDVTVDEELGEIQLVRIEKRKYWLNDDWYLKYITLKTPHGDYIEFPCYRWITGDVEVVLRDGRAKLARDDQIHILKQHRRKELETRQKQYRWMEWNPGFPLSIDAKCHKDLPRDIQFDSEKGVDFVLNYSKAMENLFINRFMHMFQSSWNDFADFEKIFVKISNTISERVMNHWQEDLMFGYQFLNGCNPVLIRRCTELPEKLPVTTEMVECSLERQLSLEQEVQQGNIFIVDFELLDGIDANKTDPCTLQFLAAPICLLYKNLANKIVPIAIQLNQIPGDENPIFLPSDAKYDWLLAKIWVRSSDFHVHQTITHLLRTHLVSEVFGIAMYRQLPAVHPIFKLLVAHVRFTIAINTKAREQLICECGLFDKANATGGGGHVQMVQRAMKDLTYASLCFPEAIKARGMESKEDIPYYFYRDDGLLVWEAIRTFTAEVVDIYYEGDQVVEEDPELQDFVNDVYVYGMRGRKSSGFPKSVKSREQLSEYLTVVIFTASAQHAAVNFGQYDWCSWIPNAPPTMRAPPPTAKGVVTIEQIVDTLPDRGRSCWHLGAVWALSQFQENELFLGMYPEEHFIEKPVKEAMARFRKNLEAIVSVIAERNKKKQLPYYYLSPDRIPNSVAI
To be noted: cited from earlier work.

For data set [10] the following is noted: cited from earlier work.
A further data set has as its system chronic hepatitis B or C. To be noted: in vivo; cited from earlier work.
For a further data set, the system named is cyclooxygenase. To be noted: cited from earlier work.
The target of data set [11] is T1, 5-lipoxygenase. The following applies: cited from earlier work. The source holds these as a separate data set.
For data set [12] the following is noted: in vivo; cited from earlier work.

Entries after “also recorded” stand apart in the source; their conditions may differ.

Take `CC(C)(Sc1cc(C(C)(C)C)c(O)c(C(C)(C)C)c1)Sc1cc(C(C)(C)C)c(O)c(C(C)(C)C)c1` [probucol]: in the data set with cultured stellate cells, the “inhibition of activation and collagen expression/production” value was “success in inhibiting activation and collagen production”.

With `Cc1c(C)c2c(c(C)c1O)CC[C@@](C)(CCC[C@H](C)CCC[C@H](C)CCCC(C)C)O2` [d-α-tocopherol], the “effect on stellate cell cycle activation (PCNA) induced by collagen type I matrix or TGFα” value with hepatic stellate cells [1] is “blocked the activation of the stellate cell cycle”. In addition, in data set [2], the “plasma levels of d-α-tocopherol after treatment” value was determined as 27±6.8. Also, the “effect on stellate cell activation / increased α-SMA expression induced by collagen type I matrix” value in the data set on hepatic stellate cells [3] (50 μM) is given as “blocked the induction of stellate cell activation by collagen type I matrix; also recorded: abolished”. In addition, in the data set with collagen expression, the “collagen expression by the skin” value was “did not inhibit collagen expression by the skin”; the “collagen expression in the liver and tendons” value is “decreases collagen expression in the liver and tendons”. Besides, in data set [4] (1,200 IU/day orally), the “expression of c-myb in stellate cells” value is reported as “diminished expression of c-myb in stellate cells” and the “stellate cell activation (α-SMA) in liver sections” value is “lesser degree of stellate cell activation”. The “expression of collagen α1(I) mRNA in stellate cells” value in [4] (1,200 IU/day orally, in situ hybridization) was “lower expression of collagen al(I) mRNA in stellate cells”. Besides, in [4] (1,200 IU/day orally, patients refractory to interferon), the “MDA-adducts in liver sections” value is recorded as “decreased MDA-adducts”. Also, the “effect on histologic degree of hepatocellular inflammation” value in data set [4] (1,200 IU/day) is listed as “did not significantly affect”. For the same compound, in data set [5], the “carbonyl modified plasma proteins after treatment” value worked out at 1.5 ± 0.4 µmol/mL. In addition, the “effect on HCV titres” value in the data set on HCV was “did not significantly affect”. Further, the hepatocellular necrosis entry in data set [6] was “ameliorate hepatocellular necrosis”.

Turning to `CC(C)(C)c1cc(C=C2SCNC2=O)cc(C(C)(C)C)c1O` [LY-178002, 5-{[3,5-bis(1,1-dimethylethyl)-4-hydroxyphenyl]methylene}-4-thiazolidine], the “enzymatic activity of phospholipase A2” value in the data set with phospholipase A2 is given as “inhibit”. Moreover, in [7], the “leukotriene B4 production” value is given as “inhibit leukotriene B4 production”. In data set [8], the “enzymatic activity of fatty acid cyclooxygenase” value is on record as “inhibit”. The “enzymatic activity of 5-lipoxygenase” value on 5-lipoxygenase [9] is given as “inhibit”.

As to `Cc1cc(C(C)(C)C)c(O)c(C(C)(C)C)c1` [BHT, 2,6-Bis(1,1-dimethylethyl)-4-methylphenol], in the data set with hepatic stellate cells [1], the “effect on stellate cell cycle activation (PCNA) induced by collagen type I matrix or TGFα” value was “blocked the activation of the stellate cell cycle”. Besides, the “effect on stellate cell activation / increased α-SMA expression induced by collagen type I matrix” value in the data set with hepatic stellate cells [3] (50 μM) was “blocked the induction of stellate cell activation by collagen type I matrix; also recorded: abolished”. For the same compound, in [10] (alcohols like ethanol and isopropanol), the solubility in alcohols entry is “soluble”. Also, the solubility in water entry in [10] (water) is given as “insoluble”.

For `NC(=O)c1ncn([C@@H]2O[C@H](CO)[C@@H](O)[C@H]2O)n1` [ribovirin], in the data set on chronic hepatitis B or C, the effectiveness result is listed as “neither has been shown to be very effective”.

For `NC1=NN(c2cccc(C(F)(F)F)c2)CC1` [BW-755c], the “inhibition of activation and collagen expression/production” value in the data set on cultured stellate cells is “success in inhibiting activation and collagen production”.

As to `O=CCC=O` [malondialdehyde], the “stellate cell entry into S-phase” value with hepatic stellate cells [1] (200 μM, EHS matrix) is “stimulated stellate cell entry into S-phase”. Besides, the “activation of hepatic stellate cells on EHS matrix” value with hepatic stellate cells [3] (50 μM, data not shown) is “able to activate stellate cells, but to a lesser extent”; with hepatic stellate cells [3] (200 μM), “markedly stimulated the activation of hepatic stellate cells”. Moreover, in the data set with hepatic stellate cells [3] (stellate cells cultured on plastic, 58% without malondialdehyde, P<0.05), the “cells (+) for α-SMA” value is on record as 93%.

With `C#CCCCC(=O)c1cc(C(C)(C)C)c(O)c(C(C)(C)C)c1` [tebufelone, 4-(5′-hexynoyl)-2,6-di-tert-butylphenol], the cyclooxygenase inhibition result in the data set on cyclooxygenase is reported as “reversibly inhibits”. The 5-lipoxygenase inhibition entry on 5-lipoxygenase [11] was “reversibly inhibits”.

For the compound `CN1CSC(=Cc2cc(C(C)(C)C)c(O)c(C(C)(C)C)c2)C1=O` [LY-256548, 5-{[3,5-bis(1,1-dimethylethyl)-4-hydroxyphenyl]methylene}-4-N-methylthiazolidine], the “enzymatic activity of phospholipase A2” value with phospholipase A2 was “inhibit”. For the same compound, the “leukotriene B4 production” value in data set [7] was “inhibit leukotriene B4 production”. For the same compound, in data set [8], the “enzymatic activity of fatty acid cyclooxygenase” value is “inhibit”. In addition, the “enzymatic activity of 5-lipoxygenase” value at 5-lipoxygenase [9] was “inhibit”.

Consider `CCCOC(=O)c1cc(O)c(O)c(O)c1` [propyl gallate], for which, in the data set on cultured stellate cells, the “inhibition of activation and collagen expression/production” value is “success in inhibiting activation and collagen production”.

Take `CCCCC[C@H](O)/C=C/[C@H]1[C@H](O)CC(=O)[C@@H]1C/C=C\CCCC(=O)O` [prostaglandin E2]: in data set [6], the hepatocellular necrosis result was “ameliorate hepatocellular necrosis”.

Take interferon alpha: the “patients requiring discontinuance or dosing adjustment” value in [12] was 20-50%.
